Measurements reported in the supplement of paper PMC10307832.

What was measured:
Experiment in all cases: relative viability (nuclei count vs DMSO), 5 days (fraction); higher = more cells survive
[1] = compound: C[As](C)SC[C@H](NC(=O)CC[C@H](N)C(=O)O)C(=O)NCC(=O)O [Darinaparsin] + Cc1nc(NC(=O)N2CCC[C@H]2C(N)=O)sc1-c1ccnc(C(C)(C)C(F)(F)F)c1 [Alpelisib] (partner 2 µM)
In short: (§1)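 After 5 days of treatment, lung cancer cells in 1536-well plates were fixed and stained in a single step (final 0.05% Triton X-100, 1% formaldehyde, 1 ug/ml Hoechst) and their nuclei counted on 4× images. Treatment had been applied by pin tool the day after seeding as one drug alone or as a fixed anchor-drug dose with five library-drug doses (not always all listed) in √10 steps. Relative viability is the nuclei count of treated wells divided by that of vehicle wells, and values are medians of duplicate plates.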

[2] = compound: C1CC2=C(C1)C=C(C=C2)OC3=NC(=C4C(=N3)N(C=N4)CC5=CC=C(C=C5)C6=CC=CC=C6)N[C@@H](CC7=CC=CC=C7)CO [QS11] + COc1cccc2cc(-c3nc([C@H]4CC[C@H](C(=O)O)CC4)n4ncnc(N)c34)[nH]c12 [OSI-027] (partner 0.5 µM)
In short: as §1

[3] = compound: C1CC2=C(C1)C=C(C=C2)OC3=NC(=C4C(=N3)N(C=N4)CC5=CC=C(C=C5)C6=CC=CC=C6)N[C@@H](CC7=CC=CC=C7)CO [QS11] + O=C(CCCCCCC(=O)Nc1ccccc1)NO [Vorinostat] (partner 1 µM)
In short: as §1

[4] = compound: CC1=C(C=C(C=C1)NC(=O)C2=CC(=CC=C2)C(C)(C)C#N)NC3=CC4=C(C=C3)N=CN(C4=O)C [AZ628] + COc1cccc2cc(-c3nc([C@H]4CC[C@H](C(=O)O)CC4)n4ncnc(N)c34)[nH]c12 [OSI-027] (partner 0.5 µM)
In short: as §1

Cell Line | relative viability ([1]; first compound 0.08 µM) | relative viability ([1]; first compound 0.8 µM) | relative viability ([1]; first compound 2.53 µM) | relative viability ([1]; first compound 8 µM) | relative viability ([2]; first compound 0.08 µM) | relative viability ([2]; first compound 0.253 µM) | relative viability ([2]; first compound 0.8 µM) | relative viability ([2]; first compound 2.53 µM) | relative viability ([2]; first compound 8 µM) | relative viability ([3]; first compound 0.08 µM) | relative viability ([3]; first compound 0.253 µM) | relative viability ([3]; first compound 0.8 µM) | relative viability ([3]; first compound 2.53 µM) | relative viability ([3]; first compound 8 µM) | relative viability ([4]; first compound 0.08 µM) | relative viability ([4]; first compound 0.253 µM) | relative viability ([4]; first compound 0.8 µM) | relative viability ([4]; first compound 2.53 µM) | relative viability ([4]; first compound 8 µM)
NCI-H1755 | 1.26 | 0.896 | 0.892 | 1.28 | 0.685 | 0.725 | 0.592 | 0.604 | 0.486 | 0.748 | 0.714 | 0.605 | 0.515 | 0.655 | 0.683 | 0.74 | 0.781 | 0.636 | 0.575
LU99A | 0.592 | 0.52 | 0.457 | 0.606 | 0.255 | 0.306 | 0.299 | 0.291 | 0.315 | 0.432 | 0.438 | 0.51 | 0.515 | 0.464 | 0.271 | 0.313 | 0.268 | 0.288 | 0.239
HCC-44 | 0.833 | 0.92 | 0.576 | 0.979 | 0.606 | 0.531 | 0.512 | 0.593 | 0.378 | 1.14 | 1.05 | 0.557 | 0.98 | 1.01 | 0.453 | 0.441 | 0.493 | 0.374 | 0.365
EBC-1 | 0.802 | 0.773 | 0.728 | 0.958 | – | – | – | – | – | – | – | – | – | – | – | – | – | – | –
NCI-H647 | 1.57 | 1.16 | 0.827 | 1.31 | 0.585 | 0.64 | 0.596 | 0.642 | 0.732 | 0.623 | 0.801 | 0.62 | 0.387 | 0.356 | 0.666 | 0.722 | 0.495 | 0.537 | 0.462
NCI-H1734 | 0.829 | 0.67 | 0.669 | 0.766 | 0.66 | 0.548 | 0.594 | 0.517 | 0.49 | 0.79 | 0.82 | 0.779 | 0.792 | 0.672 | 0.604 | 0.565 | 0.512 | 0.46 | 0.293
NCI-H1993 | 0.712 | 0.681 | 0.688 | 0.678 | 0.582 | 0.674 | 0.547 | 0.538 | 0.5 | 0.972 | 0.629 | 0.776 | 0.983 | 0.498 | 0.541 | 0.578 | 0.53 | 0.594 | 0.577
NCI-H23 | 0.926 | 0.582 | 0.711 | 0.681 | 0.626 | 0.516 | 0.52 | 0.453 | 0.305 | 0.542 | 0.6 | 0.564 | 0.544 | 0.491 | 0.568 | 0.528 | 0.464 | 0.474 | 0.309
NCI-H1623 | – | – | – | – | 0.417 | 0.386 | 0.415 | 0.445 | 0.426 | – | – | – | – | – | 0.452 | 0.388 | 0.245 | 0.36 | 0.225
NCI-H1355 | 0.955 | 0.8 | 0.785 | 0.92 | 0.392 | 0.324 | 0.334 | 0.35 | 0.334 | 0.732 | 0.62 | 0.529 | 0.597 | 0.554 | 0.435 | 0.327 | 0.311 | 0.308 | 0.298
NCI-H2170 | 0.927 | 0.759 | 0.629 | 1.13 | 0.691 | 0.692 | 0.703 | 0.8 | 0.743 | 0.819 | 0.85 | 0.664 | 0.796 | 1.07 | 0.836 | 0.676 | 0.717 | 0.749 | 0.578
NCI-H1703 | 0.612 | 0.345 | 0.283 | 0.39 | – | – | – | – | – | – | – | – | – | – | – | – | – | – | –
NCI-H1563 | 0.903 | 0.91 | 1.01 | 0.894 | 0.67 | 0.775 | 0.741 | 0.745 | 0.693 | – | – | – | – | – | 0.787 | 0.726 | 0.718 | 0.788 | 0.792
Calu-6 | 1.14 | 0.975 | 1.02 | 0.945 | – | – | – | – | – | – | – | – | – | – | – | – | – | – | –
SW 900 | – | – | – | – | 0.547 | 0.601 | 0.661 | 0.487 | 0.423 | 0.295 | 0.378 | 0.452 | 0.457 | 0.348 | 0.61 | 0.566 | 0.501 | 0.345 | 0.474
NCI-H1299 | 1.09 | 1.18 | 0.904 | 1.18 | – | – | – | – | – | – | – | – | – | – | – | – | – | – | –
NCI-H522 | – | – | – | – | 0.733 | 0.795 | 0.722 | 0.727 | 1.97 | 0.799 | 0.871 | 0.766 | 1 | 0.999 | 0.799 | 0.668 | 0.658 | 0.644 | 0.641
NCI-H1650 | – | – | – | – | 0.58 | 0.549 | 0.642 | 0.547 | 0.396 | 0.463 | 0.446 | 0.51 | 0.476 | 0.389 | 0.642 | 0.793 | 0.666 | 0.557 | 0.458
ChaGo-K-1 | – | – | – | – | 0.358 | 0.666 | 0.749 | 0.659 | 0.569 | – | 0.799 | 0.935 | 0.767 | 0.745 | 0.575 | 0.525 | 0.496 | 0.556 | 0.388
NCI-H1648 | – | – | – | – | – | 0.26 | – | 0.275 | 0.247 | 0.506 | 0.666 | 0.517 | 0.505 | 0.577 | 0.254 | 0.276 | 0.253 | 0.255 | 0.244
NCI-H1792 | 0.684 | 0.575 | 0.493 | 1.03 | 0.731 | 0.969 | 0.65 | 0.565 | 0.82 | – | – | – | – | – | 0.735 | 0.516 | 0.474 | 0.428 | 0.233
IA-LM | 1.02 | 0.663 | 1.4 | 0.965 | – | – | – | – | – | 0.926 | 1.13 | 0.674 | 0.806 | 0.88 | – | – | – | – | –
